Measured values: ChEMBL document CHEMBL1201862, “PubChem BioAssay data set” (2004)
Calls of active or inactive are those of the source.

Key:
[1] = reduction of Shn3 3'UTR-driven luciferase in osteoblasts – cell-based, Clone20 osteoblasts, firefly luciferase, cherry-picked, dose response (AID 624132); format: functional;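 further: firefly luciferase luminescence from reporter carrying the Shn3 3'UTR in osteoblasts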
[2] = loss of viability in HepG2 cells – cell-based, CellTiter-Glo, cherry-picked, cytotoxicity control for Shn3 inhibitor project, dose response (AID 624134); format: functional
[3] = non-specific 3'UTR reporter inhibition in Clone20-Shn3RL – cell-based, Renilla luciferase, cherry-picked, counter-screen for Shn3 inhibitor project, dose response (AID 624133); format: functional
[4] = Fluorescence-based cell-based high throughput dose response assay for inhibitors of the interaction of nucleotide-binding oligomerization domain containing 2 (NOD2) and the receptor-interacting serine-threonine kinase 2 (RIPK2).; format: functional; conditions: Homo sapiens
Paired box protein Pax-8 = Paired box protein Pax-8 (Homo sapiens, UniProt Q06710); assay: PAX8 transcriptional activity inhibition in RMG-I – RMG-I cells, luciferase, cherry-pick, dose response (AID 687027); format: functional, cell-based;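 further: luciferase reporter driven by Pax8 target thyroperoxidase promoter measured by SteadyGlo luminescence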
Sequence of Paired box protein Pax-8 (Q06710 whole entry): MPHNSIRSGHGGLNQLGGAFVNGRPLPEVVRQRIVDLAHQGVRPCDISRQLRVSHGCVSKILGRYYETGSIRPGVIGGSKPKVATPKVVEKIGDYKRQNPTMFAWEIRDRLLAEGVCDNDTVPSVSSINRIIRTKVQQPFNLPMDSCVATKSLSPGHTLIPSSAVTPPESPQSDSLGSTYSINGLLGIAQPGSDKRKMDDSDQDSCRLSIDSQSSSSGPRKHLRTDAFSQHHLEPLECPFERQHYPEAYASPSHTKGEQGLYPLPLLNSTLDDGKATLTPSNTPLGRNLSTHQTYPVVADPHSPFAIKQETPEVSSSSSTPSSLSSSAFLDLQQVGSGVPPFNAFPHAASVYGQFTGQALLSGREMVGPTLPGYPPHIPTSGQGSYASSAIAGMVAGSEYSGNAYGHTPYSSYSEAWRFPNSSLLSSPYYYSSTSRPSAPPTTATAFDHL

[5] = Luminescence-based counterscreen assay for KLF5 inhibitors: dose response cell-based high throughput screening assay to identify cytotoxic compounds using the IEC-6 intestinal epithelial cell line. [Related pubchem assays: 1700 (Primary screen.), 1834 (Confirmation screen.), 1858 (Summary AID.), 1905 (Counterscreen.)]; format: functional
[6] = Luminescence Cell-Based Dose Retest to Confirm Inhibitors of Cancer Stem Cells. [Related pubchem assays (depositor defined):AID2717, AID2721]; format: functional; conditions: Homo sapiens
INS1 = assay: INS-1E survival protection against cytokine death – cell-based, luminescence, retest, dose response (AID 449756); format: functional; conditions: Rattus norvegicus;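 further: cell death triggered by IL-1 beta plus TNF-alpha plus IFN-gamma mixture; protective hits raise ATP signal compared with cytokine alone wells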
[7] = NIH3T3 cell viability loss, ATP content – CellTiter-Glo luminescence, cherry-pick, set 2, cytotoxicity control for HSP40 inhibitor project, dose response (AID 624265); format: functional
Leucine aminopeptidase = molecular target: T1, Leucine aminopeptidase (Plasmodium falciparum 3D7, UniProt Q8IL11); assay: P. falciparum M17LAP inhibitors, primary screen, biochemical, fluorogenic H-Leu-NHMec substrate, 1536-well (AID 1619); format: functional
T1 sequence (Q8IL11 whole entry): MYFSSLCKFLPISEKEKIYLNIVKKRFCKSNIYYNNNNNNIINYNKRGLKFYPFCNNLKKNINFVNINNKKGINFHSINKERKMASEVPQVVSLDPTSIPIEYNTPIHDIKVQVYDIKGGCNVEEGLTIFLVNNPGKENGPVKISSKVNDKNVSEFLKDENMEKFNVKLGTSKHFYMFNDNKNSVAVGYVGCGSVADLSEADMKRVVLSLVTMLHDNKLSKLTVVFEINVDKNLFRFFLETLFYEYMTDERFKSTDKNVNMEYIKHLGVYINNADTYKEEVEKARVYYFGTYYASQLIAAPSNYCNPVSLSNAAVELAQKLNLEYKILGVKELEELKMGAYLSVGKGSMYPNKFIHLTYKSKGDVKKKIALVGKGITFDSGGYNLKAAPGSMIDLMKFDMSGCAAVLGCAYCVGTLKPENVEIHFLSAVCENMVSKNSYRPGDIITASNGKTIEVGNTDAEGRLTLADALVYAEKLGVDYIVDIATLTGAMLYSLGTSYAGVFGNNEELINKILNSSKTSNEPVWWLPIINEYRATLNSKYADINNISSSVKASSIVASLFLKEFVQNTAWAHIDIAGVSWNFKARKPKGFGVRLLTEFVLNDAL

Melanocortin receptor 4 = Melanocortin receptor 4 (Homo sapiens, UniProt P32245); format: functional, cell-based;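 further: Cell-based assay with luminescence read-out, confirmatory dose-response testing for agonist activity of biased ligands at MC4R; human U2OS cells with tagged receptor and beta-arrestin; potency of agonists that increase receptor coupling to beta-arrestin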
Sequence of Melanocortin receptor 4 (P32245 whole entry): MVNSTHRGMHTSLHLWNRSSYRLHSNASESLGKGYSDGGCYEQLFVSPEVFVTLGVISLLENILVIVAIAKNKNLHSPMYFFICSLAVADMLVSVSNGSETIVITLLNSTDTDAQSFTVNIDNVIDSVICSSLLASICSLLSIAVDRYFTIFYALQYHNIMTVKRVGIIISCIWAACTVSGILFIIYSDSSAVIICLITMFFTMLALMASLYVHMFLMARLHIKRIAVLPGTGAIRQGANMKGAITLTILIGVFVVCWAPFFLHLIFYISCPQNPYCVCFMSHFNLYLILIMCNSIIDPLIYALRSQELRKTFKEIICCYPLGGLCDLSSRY

[8] = molecular target: Melanin-concentrating hormone receptor 1 (Homo sapiens, UniProt Q99705); assay: Late-stage fluorescence-based counterscreen for antagonists of the G-protein coupled receptor 7 (GPR7): cell-based dose response assay to identify antagonists of the melanin-concentrating hormone receptor 1 (MCHR1) Set 6.; format: functional
Sequence of Melanin-concentrating hormone receptor 1 (Q99705 whole entry): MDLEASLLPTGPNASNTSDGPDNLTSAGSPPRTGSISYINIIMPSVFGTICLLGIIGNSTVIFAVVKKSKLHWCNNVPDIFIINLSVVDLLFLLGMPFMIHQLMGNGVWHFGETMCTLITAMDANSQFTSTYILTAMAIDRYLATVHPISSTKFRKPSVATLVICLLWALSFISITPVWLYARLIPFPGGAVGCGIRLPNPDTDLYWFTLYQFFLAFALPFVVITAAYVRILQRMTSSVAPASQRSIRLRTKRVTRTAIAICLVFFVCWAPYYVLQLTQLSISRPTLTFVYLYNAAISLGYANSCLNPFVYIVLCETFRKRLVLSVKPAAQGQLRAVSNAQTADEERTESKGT

[9] = molecular target: T2, Neuropeptides B/W receptor type 1 (Homo sapiens, UniProt P48145); assay: human NPBW1 receptor blockade, IC50 – cell-based, fluorescence, dose response, set 6, late-stage follow-up (AID 588583); format: functional
T2 sequence (P48145 whole entry): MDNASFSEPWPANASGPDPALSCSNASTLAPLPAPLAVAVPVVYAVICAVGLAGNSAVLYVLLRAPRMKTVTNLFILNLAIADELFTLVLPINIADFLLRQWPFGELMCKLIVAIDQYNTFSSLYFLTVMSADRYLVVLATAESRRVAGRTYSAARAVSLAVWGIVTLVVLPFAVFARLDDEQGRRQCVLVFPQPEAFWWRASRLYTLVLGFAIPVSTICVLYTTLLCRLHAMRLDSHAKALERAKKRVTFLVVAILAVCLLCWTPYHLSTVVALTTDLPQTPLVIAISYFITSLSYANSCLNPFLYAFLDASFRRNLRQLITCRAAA

[10] = molecular target: Potassium voltage-gated channel subfamily KQT member 2 (Rattus norvegicus, UniProt O88943); assay: blockers of KCNQ2 channel current – cell-based, automated electrophysiology, set II, rat KCNQ2, dose response (AID 588637); format: functional
Sequence of Potassium voltage-gated channel subfamily KQT member 2 (O88943 whole entry): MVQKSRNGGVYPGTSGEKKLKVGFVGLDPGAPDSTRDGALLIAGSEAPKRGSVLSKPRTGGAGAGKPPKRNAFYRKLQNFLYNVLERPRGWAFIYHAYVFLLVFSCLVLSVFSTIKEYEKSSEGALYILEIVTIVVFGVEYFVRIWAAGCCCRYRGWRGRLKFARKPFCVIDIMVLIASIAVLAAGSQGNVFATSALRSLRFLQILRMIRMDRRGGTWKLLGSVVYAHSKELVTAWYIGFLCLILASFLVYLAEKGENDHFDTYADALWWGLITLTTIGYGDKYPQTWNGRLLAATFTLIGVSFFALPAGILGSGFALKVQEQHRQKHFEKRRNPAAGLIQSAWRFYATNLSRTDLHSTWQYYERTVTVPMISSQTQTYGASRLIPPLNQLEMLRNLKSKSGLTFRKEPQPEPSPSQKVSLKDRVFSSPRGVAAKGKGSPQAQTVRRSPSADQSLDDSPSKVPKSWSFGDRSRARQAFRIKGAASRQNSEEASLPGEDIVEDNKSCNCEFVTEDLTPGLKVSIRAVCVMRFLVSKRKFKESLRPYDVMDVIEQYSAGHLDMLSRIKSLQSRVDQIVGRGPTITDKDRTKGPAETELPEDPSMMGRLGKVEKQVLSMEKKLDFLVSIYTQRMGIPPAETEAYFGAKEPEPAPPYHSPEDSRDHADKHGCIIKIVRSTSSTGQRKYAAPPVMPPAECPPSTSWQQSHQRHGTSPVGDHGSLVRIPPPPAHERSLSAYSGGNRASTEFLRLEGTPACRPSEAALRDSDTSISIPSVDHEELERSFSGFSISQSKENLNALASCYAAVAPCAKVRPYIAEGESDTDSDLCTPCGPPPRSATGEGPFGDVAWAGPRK

[11] = NIH-3T3 fibroblast cytotoxicity, dose response, cytotoxicity control, cell-based, fluorescence, Alamar Blue, secondary assay (AID 2327); format: functional;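 further: NIH-3T3 mouse fibroblasts cultured with fluconazole at 8 µg/mL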
[12] = fluconazole-exposed Candida albicans growth modulators – fluorescence, retest, confirmation (AID 2467); format: functional, cell-based
Interleukin-8 [13] = molecular target: T3, Interleukin-8 (Homo sapiens, UniProt P10145); assay: Dose Response confirmation of uHTS small molecule hits for cystic fibrosis induced NFkb Inhibitors in a TNFa-induced IL8 counterscreen.; format: functional; conditions: read-out: IC50_Mean
T3 sequence (P10145 whole entry): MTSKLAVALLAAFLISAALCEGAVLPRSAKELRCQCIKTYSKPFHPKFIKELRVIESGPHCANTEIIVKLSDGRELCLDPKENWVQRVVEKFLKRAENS

Interleukin-8 [14] = molecular target: T3, Interleukin-8; assay: Dose Response confirmation of uHTS small molecule hits for cystic fibrosis induced NFkb Inhibitors in a PAF-induced IL8 counterscreen.; format: functional; conditions: read-out: IC50_Mean
Insulin-degrading enzyme [15] = molecular target: T4, Insulin-degrading enzyme (Homo sapiens, UniProt P14735); assay: recombinant IDE activation, cell-free – biochemical, fluorescence polarization, counter-screen for IDE activator project, dose response (AID 588681)
T4 sequence (P14735 whole entry): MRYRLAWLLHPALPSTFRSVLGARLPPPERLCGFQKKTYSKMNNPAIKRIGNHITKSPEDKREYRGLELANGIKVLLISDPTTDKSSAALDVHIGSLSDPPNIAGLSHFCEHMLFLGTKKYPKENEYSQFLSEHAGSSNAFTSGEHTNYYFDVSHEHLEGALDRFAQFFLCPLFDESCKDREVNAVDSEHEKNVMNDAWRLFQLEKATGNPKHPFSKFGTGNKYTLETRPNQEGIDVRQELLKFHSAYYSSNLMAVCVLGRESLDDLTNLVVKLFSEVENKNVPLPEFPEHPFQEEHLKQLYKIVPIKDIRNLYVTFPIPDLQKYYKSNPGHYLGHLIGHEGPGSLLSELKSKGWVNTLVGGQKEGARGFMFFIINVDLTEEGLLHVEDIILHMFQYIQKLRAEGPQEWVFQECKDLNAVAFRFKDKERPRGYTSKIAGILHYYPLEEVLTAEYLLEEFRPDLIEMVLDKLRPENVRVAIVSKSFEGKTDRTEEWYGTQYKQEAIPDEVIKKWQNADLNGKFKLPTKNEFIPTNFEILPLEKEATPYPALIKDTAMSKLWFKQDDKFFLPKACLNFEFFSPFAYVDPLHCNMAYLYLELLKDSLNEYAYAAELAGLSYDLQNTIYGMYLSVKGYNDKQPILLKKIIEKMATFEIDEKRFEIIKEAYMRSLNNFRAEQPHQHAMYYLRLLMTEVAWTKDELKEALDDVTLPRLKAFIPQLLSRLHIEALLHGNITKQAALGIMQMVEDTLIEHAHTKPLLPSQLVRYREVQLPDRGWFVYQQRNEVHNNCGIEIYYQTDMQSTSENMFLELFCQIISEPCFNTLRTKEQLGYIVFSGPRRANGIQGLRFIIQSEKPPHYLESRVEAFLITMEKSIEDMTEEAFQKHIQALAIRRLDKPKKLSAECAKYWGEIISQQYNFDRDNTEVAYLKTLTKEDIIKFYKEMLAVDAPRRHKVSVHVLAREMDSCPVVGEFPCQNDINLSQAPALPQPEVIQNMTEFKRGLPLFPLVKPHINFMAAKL

Insulin-degrading enzyme [16] = molecular target: T4, Insulin-degrading enzyme; assay: cellular IDE activation of Abeta substrate cleavage – fluorescence polarization, HEK cells, dose response (AID 588439); format: functional, cell-based
HEK293 [17] = assay: membrane integrity loss in HEK cells – cell-based, fluorescence, cytotoxicity control for IDE activator project, dose response (AID 588440); format: functional; conditions: Homo sapiens;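 further: cytotoxicity by LDH release measuring loss of membrane integrity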
HEK293 [18] = assay: optical interference in Abeta FP readout, dose response, artefact control for IDE activator project, biochemical, fluorescence polarization (AID 588442); format: functional, cell-based; conditions: Homo sapiens
[19] = cytotoxicity toward MDA-MB-231 breast cancer cells – cell-based, CellTiter-Glo luminescence, cherry-pick, cytotoxicity control for RAD54 inhibitor project, dose response (AID 651692); format: functional
[20] = molecular target: T5, DNA repair and recombination protein RAD54-like (Homo sapiens, UniProt Q92698); assay: RAD54 Holliday junction migration blockers – biochemical, fluorescence, cherry-picked samples, dose series, confirmation (AID 651657); format: functional
T5 sequence (Q92698 whole entry): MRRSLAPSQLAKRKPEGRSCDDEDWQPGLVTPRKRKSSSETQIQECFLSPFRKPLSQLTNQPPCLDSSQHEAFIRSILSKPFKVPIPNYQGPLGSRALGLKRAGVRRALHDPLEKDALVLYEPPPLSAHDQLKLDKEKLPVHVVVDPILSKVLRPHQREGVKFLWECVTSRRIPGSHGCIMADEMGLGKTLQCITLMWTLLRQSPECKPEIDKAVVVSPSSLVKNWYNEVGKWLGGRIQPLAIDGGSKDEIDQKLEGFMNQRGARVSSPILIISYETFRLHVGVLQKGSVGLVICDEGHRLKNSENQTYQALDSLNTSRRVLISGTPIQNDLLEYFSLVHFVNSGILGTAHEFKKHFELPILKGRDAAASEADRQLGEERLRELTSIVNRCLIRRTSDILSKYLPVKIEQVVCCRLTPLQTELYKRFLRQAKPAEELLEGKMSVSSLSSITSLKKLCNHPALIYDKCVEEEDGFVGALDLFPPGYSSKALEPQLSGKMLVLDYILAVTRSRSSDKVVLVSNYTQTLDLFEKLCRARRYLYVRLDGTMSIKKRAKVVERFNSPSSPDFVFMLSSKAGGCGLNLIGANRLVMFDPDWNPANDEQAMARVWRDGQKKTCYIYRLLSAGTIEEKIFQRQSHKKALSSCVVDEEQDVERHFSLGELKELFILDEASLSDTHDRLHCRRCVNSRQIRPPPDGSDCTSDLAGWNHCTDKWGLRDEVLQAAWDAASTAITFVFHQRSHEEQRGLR

[21] = molecular target: T6, DNA repair protein RAD52 homolog (Homo sapiens, UniProt P43351); format: functional, biochemical
T6 sequence (P43351 whole entry): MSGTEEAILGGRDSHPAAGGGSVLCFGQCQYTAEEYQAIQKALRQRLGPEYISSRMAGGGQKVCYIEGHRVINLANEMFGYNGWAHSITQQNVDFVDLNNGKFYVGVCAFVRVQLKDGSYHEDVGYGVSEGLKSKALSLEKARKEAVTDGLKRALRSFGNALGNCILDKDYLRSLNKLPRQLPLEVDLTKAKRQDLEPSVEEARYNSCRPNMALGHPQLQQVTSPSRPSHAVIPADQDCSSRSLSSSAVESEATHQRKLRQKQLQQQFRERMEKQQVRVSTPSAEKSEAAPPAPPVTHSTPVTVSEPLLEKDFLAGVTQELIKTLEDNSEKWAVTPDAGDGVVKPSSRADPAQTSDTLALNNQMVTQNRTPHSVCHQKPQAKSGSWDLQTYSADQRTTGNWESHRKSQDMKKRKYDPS

For `C=C1C(=O)[C@]23C[C@H]1CC[C@H]2[C@]1(C)[C@@H](OC(C)=O)CC[C@@](C)(C(=O)OC)[C@H]1C[C@@H]3OC(C)=O`, the AC50 [1] was 5.99 µM (active), the AC50 [2] was 13.6 µM (active) and the AC50 [3] was 5.01 µM (active). For the same compound, the IC50 [4] was 3.1 µM (active) and the AC50 (Paired box protein Pax-8) was 3.62 µM (active).
In the case of `Cc1cc(-c2ccccc2)n(-c2cc(N/N=C/c3ccccc3O)ncn2)n1`, the IC50 [5] is reported as 9.65 µM (active), the AC50 [6] is reported as 0.703 µM (active) and the AC50 (INS1) is reported as 4.06 µM (active). For the same compound, the AbsAC35_uM [7] was 52.65 µM.
For `CC(C)c1ccc(NC(=O)CSc2ncccc2C(=O)Oc2cccc([N+](=O)[O-])c2)cc1`, the IC50 (Leucine aminopeptidase) was 8.47 µM (active) and the EC50 (Melanocortin receptor 4) was > 89.2 µM (inactive).
In the case of `COc1ccc(Oc2c(Cl)cnn(Cc3cc(-c4ccccc4)n(-c4ccccc4)n3)c2=O)cc1`, the IC50 [8] is reported as > 20 µM (inactive) and the IC50 [9] is reported as > 20 µM (inactive).
With `COc1cc(-c2cc(C(=O)N(C)Cc3ccccc3)c3ccccc3n2)cc(OC)c1OC` the IC50 [10] was 0.634 µM (active).
In the case of `O=C(Oc1cc2oc(=O)cc(-c3ccccc3)c2cc1Cl)C1CCCCC1`, the EC50 [11] is reported as > 150 µM (inactive), the EC50 [12] is reported as 2.32 µM (active) and the IC50 (Interleukin-8 [13]) is reported as > 79 µM (inactive). The IC50 (Interleukin-8 [14]) was 9.8 µM (active).
With `Cc1c(C(C#N)c2ccccc2)cnn(Cc2cccc3ccccc23)c1=O` (configuration not stated) the IC50 [8] was 3.99 µM (active) and the IC50 [9] was 3.99 µM (active).
With `CC(=O)Nc1ccc(N2S(=O)(=O)c3ccccc3S2(=O)=O)cc1` the EC50 (Insulin-degrading enzyme [15]) was > 54.7 µM (inactive), the EC50 (Insulin-degrading enzyme [16]) was > 54.7 µM (inactive) and the IC50 (HEK293 [17]) was > 89.2 µM (inactive). The EC50 (HEK293 [18]) was > 54.7 µM (inactive).
In the case of `CC(=O)Nc1cc(-c2cccc(C(=O)NCCN(C)C)c2)cn2c(-c3ccc(C(C)=O)cc3)cnc12`, the AC50 [19] is reported as 31.8 µM (active), the AC50 [20] is reported as 16.1 µM (active) and the AC50 [21] is reported as 2.12 µM (active).
